From publication PMC6609034, “Unraveling the role of the secretor antigen in human rotavirus attachment to histo-blood group antigens” (PLoS Pathogens, 2019)

What was measured:
Design in all cases: species or system human rotavirus
[1] = system: VP8* P[4]; assay: ELISA-like binding assay to biotinylated HBGAs; conditions: biotinylated PAA glycan 2 μg/ml, VP8* 10 μg/ml
Excerpt: (§1) A panel of biotinylated sugar antigens including Le^a, Le^b, Le^c (lacto-N-biose; LNB), H type-1, H type-2 and blood group A and B trisaccharides were purchased from Glyconz (Fig 1 and S1 Table). These glycans are biotinylated neoglyconjugates of a poly[N-(2-hydroxyethyl)acrylamide] (PAA) with a size from 30 to 50 KDa. This forms a flexible polymer ideal for a multivalent presentation of glycans. Immobilized streptavidin F96 black plates (Nunc) were coated with the biotinylated oligosaccharides (2 μg/ml) in milli-Q water and incubated during 1 hour at 37°C. After functionalization the plates were washed once with PBS containing 0.05% of Tween 20 (PBS-T) and the VP8* proteins were added (10 μg/ml) and incubated at 4°C overnight. After three washes with PBS-T, a rabbit polyclonal antibody anti GST (1:1,000) (Abcam) was added and the plates were incubated one hour at 37°C. Then, the plates were washed three times with PBS-T and incubated for 1 h at 37°C with 1:10,000 dilution of horseradish peroxidase (HRP)-conjugated goat anti-rabbit (Abcam). After three washes with PBS-T, the binding was detected using QuantaBlue reagent (ThermoFisher) kit, as recommended by the manufacturer. Fluorescence units were registered by a MultiScan microplate reader. All the binding assays were performed in triplicate.

[2] = system: VP8* P[6]; assay: ELISA-like binding assay to biotinylated HBGAs; conditions: biotinylated PAA glycan 2 μg/ml, VP8* 10 μg/ml
Excerpt: as §1

[3] = system: Wa DLP (double-layered particles); assay: ELISA-like glycan binding assay of rotavirus particles; conditions: DLP 10 to 0.078 μg/ml
Excerpt: (§2) African green monkey kidney epithelial cells (MA104 cell line; ATTC #CRL-2378.1) were used for the propagation of rotavirus Wa strain that belongs to the globally dominant human genotype G1P[8]. Briefly, ten MA104 cells confluent 150-cm^2 flasks (approximately 1.5 ×10^7 cells/flask) were infected with Wa strain at a multiplicity of infection (MOI) of ≤ 0.1 and processed as previously described. One hundred ml of medium with 1.5x10^8 virus/ml were obtained and the viral particles were concentrated by pelleting at 160,000 × g for 1 h at 4°C in a SW 41 rotor (Beckman). The viral pellet was resuspended in TNC buffer (20 mM Tris-HCl pH 8.0, 100 mM NaCl, 1 mM CaCl2) for triple-layered particles (TLP) or in TNE (20 mM Tris-HCl, pH 8.0, 100 mM NaCl, 1 mM EDTA) for double-layered particles (DLP).
(§3) An ELISA-like binding assay was employed to determine the binding ability of rotavirus TLP and DLP to the H type-1 antigen and to its precursor LNB. Streptavidin plates were coated with the biotinylated oligosaccharides as described above. After washing with PBS-T, two fold serial dilutions of TLPs and DLP were added to the plate (ranging from 10 μg/ml to 0.078 μg/ml). The TLP were always maintained in TNC-T (20 mM Tris, 100 mM NaCl, 1 mM CaCl2, 0.05% Tween 20, pH 7,4) buffer and the binding and washing steps were always carried out in this solution. DLPs assays were carried out in Tris-buffered saline buffer with Tween 20 (TBS-T, 20 mM Tris, 100 mM NaCl, 0.05% Tween 20, pH 7.4). TLP and DLP were incubated in the plate overnight at 4°C. After binding, the plates were washed three times in TNC-T (for TLP) or TBS-T (for DLP) with 0.05% Tween 20 (TNC-T and TBS-T), and a mouse anti-VP6 antibody was added at 1:100 in TNC-T or TBS-T and incubated 1 h at 37°C. The plates were then washed three times with TNC-T or TBS-T, and a HRP-conjugated anti-mouse IgG was added at 1:10.000 and incubated at 37°C for 1 h. […] Fluorescence units were recorded by a MultiScan microplate reader.

[4] = system: Wa TLP (triple-layered particles); assay: as above; conditions: TLP 10 to 0.078 μg/ml
Excerpt: as §2, §3

[5] = system: VP8* P[8]c binding to the H1 antigen; assay: Binding blocking assay, immobilized H1 antigen; conditions: soluble sugar at 20 mM
Description: (§4) To confirm the binding of the VP8* from the P[8] genotype to the H type-1 precursor LNB, a blocking assay was performed using soluble LNB and its related disaccharide galacto-N-biose (Gal-β-1,3-GalNAc; GNB) produced and purified in our laboratory as previously described.
(§5) Streptavidin microtiter plates were coated with biotinylated H type-1 antigen or LNB at 2 μg/ml with water and incubated for 1 hour at 37°C, followed by an overnight incubation at 4°C. Blocking assays were performed in parallel, using glass tubes containing the P[8]c and P[8]Wa VP8* protein at their EC50 for each ligand and 20 mM of each of the soluble disaccharides (LNB and GNB) and monosaccharides (D-galactose, GlcNAc and GalNAc). A positive binding control without sugar was also included. The tubes containing the mixes of VP8* with sugars were maintained 1 hour at 37°C, followed by an overnight incubation at 4°C. The next day the coated streptavidin plates were washed with PBS-T, the VP8*-sugar solutions were added to the plates and incubated during 4 hours at 4°C. The plates were washed three times with PBS-T and detection of the interactions was performed as described above. The results are presented as the percentage (%) of binding of each condition compared to the binding of the positive binding control (without blocking sugar). All experiments were performed in triplicate.

[6] = system: VP8* P[8]c binding to LNB; assay: Binding blocking assay, immobilized LNB; conditions: soluble sugar at 20 mM
Description: as §4, §5

Row | Structure (SMILES) | binding (ELISA-like) [1] | binding (ELISA-like) [2] | binding of rotavirus particles (ELISA-like) [3] | binding of rotavirus particles (ELISA-like) [4] | reduction in the binding to the H1 antigen [5] [%] | reduction of the binding of VP8* P[8]c to LNB [6] [%]
1 | CC(=O)NC1C(O)OC(CO)C(O)C1OC1OC(CO)C(O)C(O)C1OC1OC(C)C(O)C(O)C1O (stereo not drawn) [H1, Fuc-α1,2-Gal-β1,3-GlcNAc] | recognized | recognized | not | able to bind |  | 
2 | CC(=O)NC1C(O)OC(CO)C(O)C1OC1OC(CO)C(O)C(O)C1O (stereo not drawn) [LNB, Gal-β1,3-GlcNAc] |  |  | not | able to bind | 24.2 | 52.2
